Experimental data from the supplement of paper PMC11451515.

Tested on: P12-Ichikawa
Assay: cell viability relative to DMSO control; higher = less cytotoxic
Settings: 48 h
How it was run: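 NOMO1 or SEM cells were plated at 500 cells/well and P12-Ichikawa cells at 1000 cells/well in 1536-well plates (5 μl), after each leukemia line had been adapted for at least four passages in each medium. Pin dosing delivered library compounds in DMSO at 11 threefold concentrations, 47 μM to 0.79 nM. CellTiter-Glo One luminescence was read after 48 h at 37°C. Viability is reported as a per-plate percentage of DMSO wells, with cell-free wells as background.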

[1] = HPLM + 10% dialyzed FBS, 0.000781 µM
[2] = HPLM + 10% dialyzed FBS, 0.00234 µM
[3] = HPLM + 10% dialyzed FBS, 0.00702 µM
[4] = HPLM + 10% dialyzed FBS, 0.0211 µM
[5] = HPLM + 10% dialyzed FBS, 0.0632 µM
[6] = HPLM + 10% dialyzed FBS, 0.19 µM
[7] = HPLM + 10% dialyzed FBS, 0.569 µM
[8] = HPLM + 10% dialyzed FBS, 1.71 µM
[9] = HPLM + 10% dialyzed FBS, 5.12 µM
[10] = HPLM + 10% dialyzed FBS, 15.4 µM
[11] = HPLM + 10% dialyzed FBS, 46.1 µM
[12] = RPMI 5 mM glucose + 10% FBS, 0.000781 µM
[13] = RPMI 5 mM glucose + 10% FBS, 0.00234 µM
[14] = RPMI 5 mM glucose + 10% FBS, 0.00702 µM
[15] = RPMI 5 mM glucose + 10% FBS, 0.0211 µM
[16] = RPMI 5 mM glucose + 10% FBS, 0.0632 µM
[17] = RPMI 5 mM glucose + 10% FBS, 0.19 µM
[18] = RPMI 5 mM glucose + 10% FBS, 0.569 µM
[19] = RPMI 5 mM glucose + 10% FBS, 1.71 µM
[20] = RPMI 5 mM glucose + 10% FBS, 5.12 µM
[21] = RPMI 5 mM glucose + 10% FBS, 15.4 µM
[22] = RPMI 5 mM glucose + 10% FBS, 46.1 µM
[23] = RPMI 5 mM glucose + 10% dialyzed FBS, 0.000781 µM
[24] = RPMI 5 mM glucose + 10% dialyzed FBS, 0.00234 µM
[25] = RPMI 5 mM glucose + 10% dialyzed FBS, 0.00702 µM
[26] = RPMI 5 mM glucose + 10% dialyzed FBS, 0.0211 µM
[27] = RPMI 5 mM glucose + 10% dialyzed FBS, 0.0632 µM
[28] = RPMI 5 mM glucose + 10% dialyzed FBS, 0.19 µM
[29] = RPMI 5 mM glucose + 10% dialyzed FBS, 0.569 µM
[30] = RPMI 5 mM glucose + 10% dialyzed FBS, 1.71 µM
[31] = RPMI 5 mM glucose + 10% dialyzed FBS, 5.12 µM
[32] = RPMI 5 mM glucose + 10% dialyzed FBS, 15.4 µM
[33] = RPMI 5 mM glucose + 10% dialyzed FBS, 46.1 µM

Row | SMILES | cell viability [1] [%] | cell viability [2] [%] | cell viability [3] [%] | cell viability [4] [%] | cell viability [5] [%] | cell viability [6] [%] | cell viability [7] [%] | cell viability [8] [%] | cell viability [9] [%] | cell viability [10] [%] | cell viability [11] [%] | cell viability [12] [%] | cell viability [13] [%] | cell viability [14] [%] | cell viability [15] [%] | cell viability [16] [%] | cell viability [17] [%] | cell viability [18] [%] | cell viability [19] [%] | cell viability [20] [%] | cell viability [21] [%] | cell viability [22] [%] | cell viability [23] [%] | cell viability [24] [%] | cell viability [25] [%] | cell viability [26] [%] | cell viability [27] [%] | cell viability [28] [%] | cell viability [29] [%] | cell viability [30] [%] | cell viability [31] [%] | cell viability [32] [%] | cell viability [33] [%]
1 | CC(=O)N[C@@H]1[C@@H](NC(N)=N)\C=C(/O[C@H]1[C@H](O)[C@H](O)CO)C(O)=O | 92.9 | 103 | 106 | 106 | 116 | 116 | 117 | 112 | 112 | 114 | 113 | 93.9 | 108 | 109 | 113 | 123 | 112 | 105 | 113 | 117 | 70.2 | 118 | 88.9 | 107 | 109 | 109 | 113 | 107 | 108 | 112 | 115 | 112 | 100
2 | O=C(NCCCCN1CCOCC1)c1cc2ccccc2o1 | 119 | 122 | 119 | 115 | 114 | 120 | 113 | 117 | 112 | 112 | 102 | 115 | 122 | 120 | 118 | 106 | 116 | 107 | 105 | 101 | 95.5 | 101 | 123 | 128 | 123 | 131 | 118 | 120 | 115 | 108 | 116 | 110 | 108
3 | CC[C@@H]1[C@@H](C)O[C@@](O)([C@@H](C)[C@H](O)[C@H](C)[C@H]2OC(=O)/C=C/C=C/[C@H](C)[C@@H]([C@@H](C)[C@@H](O)[C@H](C)[C@@]3(O)C[C@@H](O[C@H]4C[C@H](O)[C@H](O)[C@H](C)O4)[C@H](CC)[C@@H](C)O3)OC(=O)/C=C/C=C/[C@@H]2C)C[C@H]1O[C@H]1C[C@H](O)[C@H](O)[C@H](C)O1 |  |  |  |  |  |  |  |  |  |  |  |  |  |  |  |  |  |  |  |  |  |  | 117 | 121 | 115 | 131 | 126 | 127 | 142 | 139 | 7.66 | 60.8 | 2.82
4 | Cc1ccccc1C(OCCN(C)C)c1ccccc1 (centres undefined) | 106 | 118 | 117 | 110 | 113 | 118 | 107 | 129 | 127 | 123 | 123 |  |  |  |  |  |  |  |  |  |  |  | 114 | 126 | 118 | 123 | 121 | 113 | 124 | 131 | 124 | 128 | 116
5 | N\C1=N\C2=C(N=C[N]2COCCO)C(=O)N1 | 98.2 | 109 | 106 | 107 | 111 | 112 | 111 | 112 | 109 | 105 | 91.3 | 93.7 | 112 | 106 | 115 | 110 | 99.4 | 110 | 106 | 106 | 92.3 | 84.6 | 97.2 | 97.8 | 111 | 98.2 | 105 | 97.3 | 110 | 94.7 | 98.9 | 102 | 85.1
6 | CCC[S+](=O)([O-])Nc1ccc(F)c(C(=O)c2c[nH]c3ncc(Cl)cc23)c1F | 110 | 116 | 109 | 119 | 112 | 110 | 99.8 | 108 | 103 | 65.7 | 44.2 | 115 | 115 | 121 | 116 | 114 | 115 | 123 | 113 | 113 | 85.6 | 54.7 | 118 | 118 | 119 | 118 | 120 | 115 | 111 | 110 | 99.8 | 72.3 | 44.2
7 | CO[C@@]12[C@H](COC(N)=O)C/3=C(N1C[C@@H]4N[C@H]24)/C(=O)/C(=C(N)\C3=O)C | 117 | 123 | 125 | 126 | 119 | 116 | 112 | 121 | 118 | 118 | 99.2 |  |  |  |  |  |  |  |  |  |  |  |  |  |  |  |  |  |  |  |  |  | 
8 | CCOC(=O)N1c2ccc(C(F)(F)F)cc2[C@@H](N(Cc2cc(C(F)(F)F)cc(C(F)(F)F)c2)C(=O)OC)C[C@H]1CC | 127 | 120 | 116 | 119 | 119 | 114 | 121 | 110 | 116 | 110 | 106 | 131 | 123 | 122 | 132 | 133 | 116 | 127 | 121 | 124 | 103 | 111 | 115 | 128 | 117 | 118 | 120 | 127 | 121 | 114 | 123 | 112 | 104
